Experimental findings from PubChem BioAssay AID1322 (NMMLSC, 2008) are described below.

The structures appear in SMILES notation. The source made the active and inactive calls. The rule behind the calls is not given here.

Bcl-2-like protein 1 (Homo sapiens), sequence (Q07817 whole entry, looked up): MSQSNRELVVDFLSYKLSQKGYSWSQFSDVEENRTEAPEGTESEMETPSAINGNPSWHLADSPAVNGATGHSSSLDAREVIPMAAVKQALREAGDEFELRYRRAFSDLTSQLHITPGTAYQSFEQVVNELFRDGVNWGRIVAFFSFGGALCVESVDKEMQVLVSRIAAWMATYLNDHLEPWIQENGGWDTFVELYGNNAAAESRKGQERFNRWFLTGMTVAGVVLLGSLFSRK

One assay addresses Bcl-2-like protein 1 (Homo sapiens) (UniProt Q07817). As to the kind of experiment: Bim-Bcl-XL interaction inhibitors, potency, dose response, biochemical, multiplexed, bead flow cytometry, human Bcl-XL (AID 1322). For inhibition: test concentration not given here. Conditions: Bead-based flow cytometry, Bim peptide-Bcl-XL binding, MCF. (In general: A flow cytometer gives signals particle by particle.)
Take `CCOc1cc(NC(=S)NC)c(OCC)cc1NC(=O)c1ccc(OC)cc1`: the outcome was inactive. Still for that read-out and setting: to `Cc1ccc(-c2cc(C(=O)Nc3cc(C(=O)O)ccc3C)c3ccccc3n2)cc1` belongs “inactive”; to `COc1ccc(C2CN(C)CC2C(=O)c2ccc(F)cc2)cc1Cl` (configuration not stated), “inactive”.

`CCOc1ccccc1/C=N/NC(=O)CNC(=O)COc1ccccc1`: the result was inactive. Regarding `Clc1nc2ccccc2cc1/C=N/Nc1nc2ccccc2[nH]1`, the EC50 result is “inactive”. In the case of `O=C(CNC(=O)c1ccc(S(=O)(=O)N2CCCC2)cc1)N/N=C/c1ccc(Cl)cc1Cl`, the result was inactive. With `C=CS(=O)c1sc(Cl)c(N2CCOCC2)c1[N+](=O)[O-]` (configuration not stated), the outcome was inactive. With `Nc1ccc(-c2cn3cccnc3n2)cc1`, the outcome was inactive. Still for that read-out and setting: to `O=C(O)/C=C/C(=O)NNC(=O)c1ccc(Br)cc1` belongs “inactive”; to `CCc1ccc(NC(=O)Cc2ccc(OC)cc2)cc1`, “inactive”; to `O=C(CCc1ccccc1)N1CCN(c2ccccn2)CC1`, “inactive”.

Staying with this assay, now noted: Bead-based flow cytometry, Bim peptide-Bcl-XL binding, MCF.
Regarding `Cc1ccccc1OCC(=O)N/N=C/c1ccccn1`, the inhibition result was “inactive”.

Regarding `COc1cc(/C=C2\S/C(=N/S(=O)(=O)c3ccccc3)NC2=O)c([N+](=O)[O-])cc1OC`, the inhibition entry was “inactive”. Consider `O=C(NCc1ccccc1)c1ccc2nc(-c3ccco3)c(-c3ccco3)nc2c1`, for which the inhibition result is “inactive”. Still for that read-out and setting: in the case of `O=C(CSc1nnc(-c2ccco2)n1Cc1ccccc1)c1ccccc1` it was “inactive”; in that of `O=C(CSc1nc2ccsc2c(=O)n1Cc1ccc(C(=O)O)cc1)NCC1CCCO1` (configuration not stated), “inactive”; in that of `Nc1ccc(N2CCCCCC2)cc1`, “inactive”. Still for that read-out and setting: to `COc1ccccc1NC1=C(NC(C)=O)C(=O)c2ccccc2C1=O` belongs “inactive”; to `O=C(NCCCO)Nc1ccc2nc(-c3ccco3)c(-c3ccco3)nc2c1`, “inactive”. The same measure, in the same setting: to `Cc1ccc(-n2c(CSc3nc(C)cc(C)n3)nnc2SCC(=O)NCc2ccco2)cc1` belongs “inactive”. For the compound `Cc1ccc2c(c1)C1CN(C)CCC1N2C(=O)Nc1cccc(Cl)c1` (configuration not stated), the inhibition entry is “inactive”.

With `CCOc1cc(/C=N/NC(=O)c2cccs2)cc([N+](=O)[O-])c1O`, the inhibition result was “inactive”. Same read-out and setting: in the case of `COc1ccc(/C=C2\SC(=O)NC2=S)cc1OC` it was “inactive”; in that of `O=C1C(=O)c2ccc(-c3ccccc3)cc2-c2ccccc21`, “inactive”; in that of `CN(C)C(=O)N1CCC(C(=O)NC2CCCCCCC2)CC1`, “inactive”. Same read-out and setting: in the case of `CCN1/C(=C/c2ccc3cc(C)ccc3[n+]2CC)Sc2cc(C)c(C)cc21` it was “inactive”. Same read-out and setting: in the case of `S=C1NC2=C(CCC/C2=C\c2ccccc2)C(c2ccccc2)N1` (configuration not stated) it was “inactive”.

In the case of `O=C(Nc1cccc(C(F)(F)F)c1)c1ccc2nc(-c3ccco3)c(-c3ccco3)nc2c1`, the inhibition entry is “inactive”. As for `CCOC(=O)CSC1=NC(=O)/C(=C/c2ccc(OC)cc2)S1`, the inhibition result is “inactive”. Same read-out and setting: to `O=C(O)C1=C[C@H](C2CC2)C[C@H](OCCCCO)O1` belongs “inactive”; to `Cc1cc2nn(-c3cccc4ccccc34)nc2cc1N`, “inactive”; to `CCOc1cc(/C=N/NC(N)=O)ccc1OCC(=O)Nc1ccc(C)c(C)c1`, “inactive”. The same measure, in the same setting: in the case of `CCc1nn2cc(C(=O)c3cc(C)ccc3O)cnc2c1-c1ccc(F)cc1` it was “inactive”; in that of `COc1ccccc1OCc1ccc(C(=O)Nc2ccccc2F)cc1`, “inactive”; in that of `CS(=O)(=O)NN1C(=O)c2ccccc2NC1c1cccc2cccnc12` (configuration not stated), “inactive”. Take `Cc1c(Cc2ccccc2)sc(N)c1C(N)=O`: the inhibition entry was “inactive”. The same measure, in the same setting: to `CN(C)c1ccc(/C=C2/SC(=O)N(CCN=C3NS(=O)(=O)c4ccccc43)C2=O)cc1` belongs “inactive”; to `Cc1ccc(/C=C/C2=Cc3c(sc(NC(=O)CSc4n[nH]c(N)n4)c3C#N)C(C)(C)C2)o1`, “inactive”; to `O=C(NCc1ccccc1)C(=O)Nc1nc(C23CC4CC(CC(C4)C2)C3)cs1`, “inactive”. Same read-out and setting: in the case of `CCN1CCN(c2cc(C)c3cc(NC(=S)N4CCCCC4)ccc3n2)CC1` it was “inactive”; in that of `CNC(=O)c1c(N)sc2c1CCCCC2`, “inactive”. On the same count and under the same terms, in the case of `Cc1ccc(NS(=O)(=O)c2cc(NC(=O)c3ccc4c(c3)NC(=O)CS4)ccc2C)c(C)c1` it was “inactive”.

On to `COc1cccc2c(SCC(=O)N/N=C/c3ccc(O)c(O)c3)cc(C)nc12`, for which the inhibition entry was “inactive”. Regarding `O=C(Nc1cccc(Cl)c1)Nc1ccc(Cl)cn1`, the inhibition result was “inactive”. Still for that read-out and setting: to `CCOc1ccc(C2=Nn3c(nnc3-c3ccco3)SC2)cc1` belongs “inactive”. As to `Cc1nc2scc(-c3ccccc3)c2c(=O)n1N=C1C=CC(=O)C=C1`, the inhibition entry was “inactive”. On the same count and under the same terms, in the case of `c1ccc(-c2nnc(OCCN3CCOCC3)c3ccccc23)cc1` it was “inactive”; in that of `COc1ccc2nc(-c3ccco3)c(-c3ccco3)nc2c1`, “inactive”. The same measure, in the same setting: to `CCN(CC)c1ccc(-c2nn3c(-c4n[nH]c5c4CCC5)nnc3s2)cc1` belongs “inactive”.

As to `Cc1cccc(-n2c(-c3ccncc3)n[nH]c2=S)c1`, the inhibition entry was “inactive”. The same measure, in the same setting: to `CCOC(=O)c1c(NC(=O)c2ccccc2N(C)S(=O)(=O)c2ccccc2)sc2c1CCCC2` belongs “inactive”. `CCN(CC)c1ccc(NC(=O)c2ccc(=O)[nH]c2)cc1S(=O)(=O)Nc1ccccc1OC`: the inhibition result was “inactive”. On the same count and under the same terms, to `CCOc1cc(C2Nc3cccc4cccc(c34)N2)ccc1O` belongs “inactive”; to `COc1ccccc1-n1c(-c2ccc(Cl)cc2)c[nH]c1=S`, “inactive”; to `O=[N+]([O-])c1ccc(N2CCN(c3ccc(O)cc3)CC2)c(Cl)c1`, “inactive”. Still for that read-out and setting: in the case of `O=C(CSc1nnc(Cc2ccccc2)o1)NCc1ccco1` it was “inactive”; in that of `COc1ccc(NC(=O)/C(C#N)=C/c2c(C)nn(-c3ccc(F)cc3)c2Cl)cc1Cl`, “inactive”; in that of `O=c1c2c(n3nnnc3n1Cc1ccccc1)-c1ccccc1CC21CCCC1`, “inactive”. Still for that read-out and setting: in the case of `CC1=C2C(CCS2(=O)=O)CC2(C1)C(=O)OC(C)(C)OC2=O` (configuration not stated) it was “inactive”.

Consider `Cc1cc(C)c2nc3nc(C)c(C)cc3c(N)c2c1`, for which the inhibition result is “inactive”. Take `COc1ccc(NC(=O)/C(Cl)=C(/Cl)S(=O)Cc2ccccc2)cn1` (configuration not stated): the inhibition result was “inactive”. `COc1ccc(NC(=O)c2cc(-c3ccc(C)o3)nc3ccccc23)cc1OC`: the inhibition entry is “inactive”. Still for that read-out and setting: to `COc1ccc2oc(-c3ccccc3)c(C(=O)N3CCOCC3)c2c1` belongs “inactive”; to `Cc1cc(N2CCN(C)CC2)nc2ccc(NC(=S)N3CCN(c4ccc(F)cc4)CC3)cc12`, “inactive”. Still for that read-out and setting: in the case of `CCNCc1cc(Br)c(OCC(=O)Nc2ccccc2)c(OC)c1` it was “inactive”.

With `Nc1c(C(=O)NCc2ccco2)sc2nc3c(cc12)C(=O)CCC3`, the inhibition entry was “inactive”. Same read-out and setting: to `Cc1ccc(-n2nc(C)c(C(=O)O)n2)c(C)c1` belongs “inactive”.
